The assay deals with T1, CCR2 (Homo sapiens, UniProt P41597).
T1 construct: (leukophoresis pack); host or cells: human peripheral blood mononuclear cells (PBMCs) from a normal human leukophoresis pack
Put plainly: hCCR2 (125-I hMCP-1) small molecule binding assay on human PBMCs. Conditions: for IC50: 125I-MCP-1, human PBMCs. From the text:
The CCR2 antagonist activity of compounds of the invention can be reported as the inhibitor concentration required for 50% inhibition (IC50 values) of specific binding in receptor binding assays using 125I-labeled MCP-1, as ligand, and Peripheral Blood Mononuclear Cells (PBMCs) prepared from normal human whole blood via density gradient centrifugation. Specific binding is defined as the total binding (e.g., total cpm on filters) minus the non-specific binding. Non-specific binding is defined as the amount of cpm still defected in the presence of excess unlabeled competitor (e.g., MCP-1),
Human PBMCs were used to test compounds of the invention in a binding assay. For example, 200,000 to 500,000 cells were incubated with 0.1 to 0.2 nM 125I-labeled MCP-1, with or without unlabeled competitor (10 nM MCP-1) or various concentrations of compounds to be tested. 125I-labeled MCP-1, were prepared by suitable methods or purchased from commercial vendors (Perkin Elmer, Boston Mass.). The binding reactions were performed in 50 to 250 μL of a binding buffer consisting of […] pH 7.2, and 0.1% BSA (bovine serum albumin), for 30 minutes at room temperature. The binding reactions were terminated by harvesting the membranes by rapid filtration through glass fiber filters (Perkin Elmer) which was presoaked in 0.3% polyethyleneimine or Phosphate Buffered Saline (PBS). The filters were rinsed with approximately 600 μL of binding buffer containing, 0.5 M NaCl or PBS, then dried, and the amount of bound radioactivity was determined by counting on a Gamma Counter (Perkin Elmer).
More specifically, the following assay may be employed to determine IC50 values for the compounds of the present invention.
hCCR2 (125-I hMCP-1) Small Molecule Binding Assay
Normal human leukophoresis pack contents, available from Biological Specialty Corporation, Colmar, Pa., is diluted 1:1 with PBS, divided into 50 ml conical tubes (preferably less than 40 mls per tube), and underlayed with 10 mls of Ficoll-Paque PLUS (GE Healthcare 17-1440-02). The tubes are centrifuged at 2800 rpm in a clinical centrifuge at room temperature for 30 mins, with no brake. The plasma layer is suctioned, and the buffycoat layer is collected. The collected buffycoat layer is washed twice with 50 mls PBS, and centrifuged at 1400 rpm with brake. The cells are counted. The cells are then diluted to 1×10^7 cells per ml in binding buffer.
96 well plates (such as, for example, Millipore MultiScreen96 plates) are pre-wet with about 100 μl binding buffer (RPMI+0.1% BSA+20 mM HEPES), and blotted just prior to compound addition.
5 μl of 50 μM test compounds in 100% DMSO are dotted onto U-bottom polypropylene 96-well plates.
245 μl per well of Binding Buffer is added to each well for 1 μM compound concentration in 2% DMSO.
50 μl of 1 μM compound is transferred to pre-wetted Millipore plates. 50 μl per well of 1×10E7 cells per ml of freshly prepared human PBMCs are added.
The samples are pre-incubated at room temperature for 30 minutes or 1 hour.
50 μl of 450 pM 125-I-hMCP-1 (Perkin-Elmer/NEN cat#NEX332025UC) is added for a final concentration 125-I-hMCP-1 of 150 pM per well.
The final test compound concentration is 0.333 uM in 150 μl total volume with 0.67% DMSO in all wells. Controls for this assay consist of 0% inhibition and 100% inhibition with 1 uM hMCP-1 (saturating conditions). All wells are run in duplicate. Controls may be in replicates of eight.
The samples are incubated at room temperature for 30 minutes.
The buffer is suctioned through the Millipore plates. The plates are washed three times with Wash Buffer (PRMI+0.1% BSA+20 mM HEPES+ 0.4 M NaC).
The plate underdrain is removed. The plate filters are allowed to dry. The filters are then punched out into plastic tubes.
Finally, the sample is counted an a Gamma Counter.
All IC50 plates were repeated for an n=2.
The following table summarizes the IC50 values identified through the described assay.

Setting [1] is: 30 min preincubation, read-out: IC50 (nM) 30 min preinc.
[2] abbreviates: 1 hr preincubation, read-out: IC50 (nM) 1 hr preinc.

Read-outs that look alike come from different tables or passages of the source.

This passage reports IC50 and inhibition results from US8946413B2 (Pfizer Inc., priority 2008, dated 2015).

By IC50 is commonly meant the point on the concentration scale where inhibition reaches its midpoint.

T1 sequence (P41597 whole entry): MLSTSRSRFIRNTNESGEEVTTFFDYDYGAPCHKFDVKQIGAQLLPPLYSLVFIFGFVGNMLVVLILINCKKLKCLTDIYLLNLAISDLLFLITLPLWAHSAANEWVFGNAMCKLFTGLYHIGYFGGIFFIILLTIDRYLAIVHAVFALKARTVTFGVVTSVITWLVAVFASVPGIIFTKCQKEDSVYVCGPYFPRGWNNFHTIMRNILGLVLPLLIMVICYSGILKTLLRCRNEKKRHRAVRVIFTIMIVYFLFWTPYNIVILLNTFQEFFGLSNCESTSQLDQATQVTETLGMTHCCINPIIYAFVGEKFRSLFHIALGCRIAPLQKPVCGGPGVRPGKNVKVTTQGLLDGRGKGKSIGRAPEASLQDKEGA

For the compound `CO[C@@H]1COCC[C@@H]1N[C@@H]1CC[C@@](C(=O)N2C[C@@H]3C[C@H]2CN3c2cncc(C(F)(F)F)n2)(C(C)C)C1` [Example 14, 1,5-anhydro-2,3-dideoxy-3-{[(1R,3S)-3-isopropyl-3-({(1S,4S)-5-[6-(trifluoromethyl)pyrazin-2-yl]-2,5-diazabicyclo[2.2.1]hept-2-yl}carbonyl)cyclopentyl]amino}-4-O-methyl-D-erythro-pentitol], the IC50 by setting is: under setting [1], 10.4 nM; under setting [2], 2.3 nM. As for `CO[C@@H]1COCC[C@@H]1N[C@@H]1C=C[C@@](C(=O)N2C[C@@H]3C[C@H]2CN3c2nccc(C(F)(F)F)n2)(C(C)C)C1` [Example 41, 1,5-anhydro-2,3-dideoxy-3-{[(1S,4S)-4-isopropyll-4-({(1S,4S)-5-[4-(trifluoromethyl)pyrimidin-2-yl]-2,5-diazabicyclo[2.2.1]hept-2-yl}carbonyl)cyclopent-2-en-1-yl]amino}-4-O-methyl-D-erythro-pentitol], under setting [1], the IC50 is 63.6 nM.

Turning to `CO[C@@H]1COCC[C@@H]1N[C@@H]1CC[C@](CC(F)F)(C(=O)N2C[C@@H]3C[C@H]2CN3c2cccc(C(F)(F)F)n2)C1` [Example 28, 1,5-anhydro-2,3-dideoxy-3-{[(1R,3S)-3-(2,2-difluoroethyl)-3-({(1S,4S)-5-[6-(trifluoromethyl)pyridin-2-yl]-2,5-diazabicyclo[2.2.1]hept-2-yl}carbonyl)cyclopentyl]amino}-4-O-methyl-D-erythro-pentitol], the IC50 under setting [2] is 1.88 nM. Consider `CO[C@@H]1COCC[C@@H]1N[C@@H]1CC[C@H](C(=O)N2C[C@@H]3C[C@H]2CN3c2cc(C(F)(F)F)ccn2)C1` [Example 65, ((1S,3R)-3-((3S,4S)-3-methoxy-tetrahydro-2H-pyran-4-ylamino)cyclopentyl)((1S,4S)-5-(4-(trifluoromethyl)pyridin-2-yl)-2,5-diaza-bicyclo[2.2.1]heptan-2-yl)methanone], for which the inhibition at 0.3 µM (300 nM, 1 hr preincubation, human PBMCs, read-out: % @300 nM (printed in column IC50 1 hr preinc)) stood at 1.5%. Take `CC[C@]1(C(=O)N2C[C@@H]3C[C@H]2CN3c2ccnc(C(F)(F)F)n2)CC[C@@H](N[C@H]2CCOC[C@H]2OC)C1` [Example 5, 1,5-anhydro-2,3-dideoxy-3-{[(1R,3S)-3-ethyl-3-({(1S,4S)-5-[2-(trifluoromethyl)pyrimidin-4-yl]-2,5-diazabicyclo[2.2.1]hept-2-yl}carbonyl)cyclopentyl]amino}-4-O-methyl-D-erythro-pentitol]: the IC50 under setting [1] was found to be 13.3 nM. Same read-out and setting: the same measure for `CO[C@@H]1COCC[C@@H]1N[C@@H]1CC[C@](C)(C(=O)N2C[C@@H]3C[C@H]2CN3c2cc(C(F)(F)F)ccn2)C1` [Example 9, 1,5-anhydro-2,3-dideoxy-3-{[(1R,3S)-3-methyl-3-({(1S,4S)-5-[4-(trifluoromethyl)pyridine-2-yl]-2,5-diazabicyclo[2.2.1]hept-2-yl}carbonyl)cyclopentyl]amino}-4-O-methyl-D-erythro-pentitol]: 30.7 nM; for `CO[C@@H]1COCC[C@@H]1N[C@@H]1CC[C@@](C(=O)N2C[C@@H]3C[C@H]2CN3c2nccc(C(F)(F)F)n2)(C(C)(C)O)C1` [Example 54]: 8.46 nM. In the case of `CO[C@@H]1COCC[C@@H]1N[C@@H]1CC[C@](CC(F)(F)F)(C(=O)N2C[C@@H]3C[C@H]2CN3c2ccnc(C(F)(F)F)n2)C1` [Example 38, 1,5-anhydro-2,3-dideoxy-4-O-methyl-3-{[(1R,3S)-3-(2,2,2-trifluoroethyl)-3-({(1S,4S)-5-[2-(trifluoromethyl)pyrimidin-4-yl]-2,5-diazabicyclo[2.2.1]hept-2-yl}carbonyl)cyclopentyl]amino}-D-erythro-pentitol], the IC50 reads like this: under setting [1], 68.7 nM; under setting [2], 2.02 nM.

In the case of `CO[C@@H]1COCC[C@@H]1N[C@@H]1CC[C@@](C(=O)N2C[C@@H]3C[C@H]2CN3c2cccc(C(F)(F)F)n2)(C(C)C)C1` [Example 16, 1,5-anhydro-2,3-dideoxy-3-{[(1R,3S)-3-isopropyl-3-({(1S,4S)-5-[6-(trifluoromethyl)pyridin-2-yl]-2,5-diazabicyclo[2.2.1]hept-2-yl}carbonyl)cyclopentyl]amino}-4-O-methyl-D-erythro-pentitol], the IC50 under setting [1] came out at 9.95 nM and the IC50 under setting [2] was found to be 1.1 nM. As for `CO[C@@H]1COCC[C@@H]1N[C@@H]1CC[C@](C)(C(=O)N2C[C@@H]3C[C@H]2CN3c2cncc(C(F)(F)F)n2)C1` [Example 10, 1,5-anhydro-2,3-dideoxy-3-{[(1R,3S)-3-methyl-3-({(1S,4S)-5-[6-(trifluoromethyl)pyrazin-2-yl]-2,5-diazabicyclo[2.2.1]hept-2-yl}carbonyl)cyclopentyl]amino}-4-O-methyl-D-erythro-pentitol], the IC50 under setting [1] came out at 83.8 nM.

Turning to `CO[C@@H]1COCC[C@@H]1N[C@@H]1CC[C@@](C(=O)N2C[C@@H]3C[C@H]2CN3c2cc(F)cc(C(F)(F)F)c2)(C(C)C)C1` [Example 23, 1,5-anhydro-2,3-dideoxy-3-{[(1R,3S)-3-({(1S,4S)-5-[3-fluoro-5-(trifluoromethyl)phenyl]-2,5-diazabicyclo[2.2.1]hept-2-yl}carbonyl)-3-isopropylcyclopentyl]amino}-4-O-methyl-D-erythro-pentitol], the IC50 under setting [2] came to 0.94 nM. In the case of `CO[C@@H]1COCC[C@@H]1N[C@@H]1CC[C@](CC(F)(F)F)(C(=O)N2C[C@@H]3C[C@H]2CN3c2ccnc(C(F)(F)F)c2)C1` [Example 34, 1,5-anhydro-2,3-dideoxy-4-O-methyl-3-{[(1R,3S)-3-(2,2,2-trifluoroethyl)-3-({(1S,4S)-5-[2-(trifluoromethyl)pyridin-4-yl]-2,5-diazabicyclo[2.2.1]hept-2-yl}carbonyl)cyclopentyl]amino}-D-erythro-pentitol], the IC50 stood at 66.5 nM under setting [1] and 6.94 nM under setting [2]. On the same counts, the results for `CO[C@@H]1COCC[C@@H]1N[C@@H]1CC[C@@](C(=O)N2C[C@@H]3C[C@H]2CN3c2cc(C(F)(F)F)nc(C(F)(F)F)c2)(C(C)C)C1` [Example 19, 1,5-anhydro-3-{[(1R,3S)-3-isopropyl-3-({(1S,4S)-5-[2,6-bis(trifluoromethyl)pyridin-4-yl]-2,5-diazabicyclo[2.2.1]hept-2-yl}carbonyl)-3-isopropylcyclopentyl]amino}-2,3-dideoxy-4-O-methyl-D-erythro-pentitol] are 20.4 nM and 6.35 nM. In the case of `CO[C@@H]1COCC[C@@H]1N[C@@H]1CC[C@@](C(=O)N2C[C@@H]3C[C@H]2CN3c2cc(C(F)(F)F)cc(C)n2)(C(C)C)C1` [Example 21, 1,5-anhydro-2,3-dideoxy-3-{[(1R,3S)-3-isopropyl-3-({(1S,4S)-5-[6-methyl-4-(trifluoromethyl)pyridin-2-yl]-2,5-diazabicyclo[2.2.1]hept-2-yl}carbonyl)cyclopentyl]amino}-4-O-methyl-D-erythro-pentitol], the IC50 under setting [2] was 3.1 nM. For `CO[C@@H]1COCC[C@@H]1N[C@@H]1C=C[C@@](C(=O)N2C[C@@H]3C[C@H]2CN3c2cc(C(F)(F)F)ccn2)(C(C)C)C1` [Example 40, 1,5-anhydro-2,3-dideoxy-3-{[(1S,4S)-4-isopropyll-4-({(1S,4S)-5-[4-(trifluoromethyl)pyridin-2-yl]-2,5-diazabicyclo[2.2.1]hept-2-yl}carbonyl)cyclopent-2-en-1-yl]amino}-4-O-methyl-D-erythro-pentitol], the IC50 under setting [1] turned out to be 18.3 nM.
